In US10550422B2, “Methods and compositions for labeling nucleic acids” (President and Fellows of Harvard College, priority 2005, dated 2020):

Key:
HeLa cells [1] = test: AdU labeling of HeLa cells, stained with Alexa568-alkyne; assay type: cell-based; conditions: 10 μM AdU overnight, 10 μM Alexa568-alkyne; FIG. 16
Description: Here HeLa cells were labeled overnight in 10 μM AdU and then stained with 10 μM Alexa568-alkyne using the conditions described herein for staining cells labeled with EdU. FIG. 16 presents two pictures of a field of the stained HeLa cells.

HeLa cells [2] = test: Time-lapse fluorescence imaging of EdU-labeled live cells stained with TMR-propyl-azide; assay type: cell-based; conditions: 200 nM TMR-propyl-azide, 25 mM ascorbate, 1 mM copper (II) sulfate, 37° C.; FIG. 7
Description: Ascorbic acid (from a […] stock in water) was then added to this solution to a final concentration of 50 mM, and the resulting staining solution is mixed thoroughly.
Washes with methanol or ethanol may be performed to obtain low background
To facilitate live microscopic imaging, EdU-labeled cells were plated in coverslip chambers which were mounted on the heated stage (37° C.) of an inverted Nikon TE200)U microscope equipped for wide-field fluorescence microscopy as well as spinning-disk confocal fluorescence microscopy (Yokogama spinning disk confocal head from Perkin-Elmer). […] The cells were imaged by time-lapse fluorescent microscopy (one frame every 15 seconds) to detect the TMR signal accumulating in the nuclei of the EdU-labeled cells.

[3] = system: mouse intestine and brain; test: In vivo EdU labeling of mice, organ sections stained with Xrhodamine-azide and Hoechst; conditions: 200 micrograms EdU intraperitoneally, organs harvested three days later
Description: BLAB/C mice were injected with 200 micrograms of EdU intraperitoneally. Three days later, organs were harvested, fixed, embedded in paraffin and sectioned. The sections were then de-waxed and stained with Xrhadomine-azide for 5 minutes, stained with Hoechst, washed and then mounted.

HeLa cells [4] = test: Tracing a single sister chromatid: EdU pulse, chase of two cell cycles, Alexa568-azide stain; assay type: cell-based; conditions: EdU pulse during DNA synthesis, Alexa568-azide with permeabilization, FIG. 13
Text: The purpose of the experiment reported herein was to label only one DNA molecule of the two that form a chromosome. That was accomplished by pulsing HeLa cells with EdU during DNA synthesis followed by a chase lasting two cell cycles, as depicted on FIG. 12. […] EdU allowed very nice resolution imaging of chromosomes in cells as shown by FIG. 13.

HeLa cells [5] = test: EdU labeling of HeLa cells, fixed/permeabilized, stained with Xrhodamine-azide (click chemistry); assay type: cell-based; conditions: 1 μM EdU, cell in anaphase, FIG. 11
Description: Ethynyl-dU (EdU) was used in tissue culture media (DMEM complemented with penicillin, streptomycin, and fetal calf serum (FCS)) ranging from 10 nM to 1 μM depending on the length of the labeling pulse. For example, if cells to be labeled were synchronized in the S phase, 100 nM to 1 μM of EdU was used for 1 to 2 hours. After labeling, the cells were washed 3 or 4 times with PBS and then tissue culture media was added.
Staining Solution: 100 mM Tris pH 8.5 (from 2 M stock in water), 0.5 to 1 mM CuSO4 (from 1 M stock in water), 0.5 to 1 μM fluorophore-azide (from approximately 10-100 mM stock in DMSO), and water (as required) were mixed together. Ascorbic acid (from a […] stock in water) was then added to this solution to a final concentration of 50-100 mM, and the resulting staining solution is mixed thoroughly using a vortex.
Cells can be fixed by any suitable method, e.g., cells can be fixed by aldehyde fixation (formaldehyde or glutaraldehyde), with or without permeabilization. After fixation, the cells were washed in buffer with or without non-ionic detergent (0.2-0.5% Triton X100). Before staining, cells were rinsed with buffer without detergent (PBS or TBS). The cells were then incubated in the presence of the staining solution for at least 30 minutes. Overnight staining is preferably performed in a cold room. […]

Row | SMILES | detection of AdU in labeled cells (HeLa cells [1]) | time to complete EdU detection on live cells (HeLa cells [2]) | EdU incorporation in intestine section ([3]; FIG. 8) | EdU-labeled cells in brain section ([3]; FIG. 10) | DNA molecules of a chromosome labeled after first and second mitosis (HeLa cells [4]) | EdU stain of cellular DNA (fluorescence microscopy) (HeLa cells [5])
1 | [N-]=[N+]=Nc1cn([C@H]2C[C@H](O)[C@@H](CO)O2)c(=O)[nH]c1=O [AdU, 5-azido-2′-deoxyuridine] | clearly detected in the nuclei of the labeled interphase cells as well as in the condensed chromosomes of mitotic cells |  |  |  |  | 
2 | C#Cc1cn([C@H]2C[C@H](O)[C@@H](CO)O2)c(=O)[nH]c1=O [EdU, 5-ethynyl-2′deoxyuracil] |  | complete within minutes | The cells with red nuclei are the cells which incorporated EdU and their descendants | A sole EdU-labeled cell can be easily identified | In the first mitosis after labeling, both DNA molecules were labeled while in the second mitosis only one DNA molecule was labeled | only the DNA replicating during the pulse was labeled
